The results in this text go back to ChEMBL document CHEMBL4418497, “Compositions and methods relating to inhibiting serine hyrdoxymethyltransferase 2 activity” (2016).

The target in experiment [1] is T1, Serine hydroxymethyltransferase, mitochondrial (Homo sapiens) (UniProt P34897).
T1 sequence (whole entry): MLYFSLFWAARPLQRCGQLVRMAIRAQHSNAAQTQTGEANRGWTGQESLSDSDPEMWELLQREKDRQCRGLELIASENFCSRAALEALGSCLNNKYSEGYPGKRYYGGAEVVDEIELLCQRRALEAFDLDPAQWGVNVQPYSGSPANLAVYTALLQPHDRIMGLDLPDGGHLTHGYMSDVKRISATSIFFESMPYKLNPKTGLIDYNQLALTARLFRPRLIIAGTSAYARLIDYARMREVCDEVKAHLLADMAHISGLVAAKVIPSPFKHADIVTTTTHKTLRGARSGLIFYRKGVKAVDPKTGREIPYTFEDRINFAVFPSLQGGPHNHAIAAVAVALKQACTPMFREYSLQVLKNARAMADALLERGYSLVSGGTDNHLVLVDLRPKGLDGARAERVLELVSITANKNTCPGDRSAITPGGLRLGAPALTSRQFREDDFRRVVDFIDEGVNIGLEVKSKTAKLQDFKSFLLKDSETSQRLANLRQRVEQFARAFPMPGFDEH
Kind of experiment: Inhibition of His-tagged human recombinant SHMT2 expressed in Escherichia coli BLR(DE3) assessed as reduction in NADPH level using L-serine, THF and NADP+ at 6.5 or 26.5 uM incubated for 5 mins by SHMT2-MTHFD coupled reaction based fluorescence assay relative to control.

Experiment [2] deals with T2, Serine hydroxymethyltransferase, mitochondrial (Homo sapiens, UniProt P34897).
T2 sequence (P34897 whole entry): T1 sequence (whole entry)
Kind of experiment: Inhibition of His-tagged human recombinant SHMT2 expressed in Escherichia coli BLR(DE3) assessed as reduction in NADPH level using L-serine, THF and NADP+ incubated for 5 mins by SHMT2-MTHFD coupled reaction based fluorescence assay. The following applies: for IC50: read-out: pIC50 (converted); for pIC50: read-out: IC50.

pIC50: −log10 of the molar value.

What is called inhibition is the change of the read-out against control, counted positive when it falls. As to `COC(=O)[C@@H]1C(O)CC[C@H]2CN3CCc4c([nH]c5ccccc45)[C@@H]3C[C@@H]21` (stereo not given in full), the inhibition in experiment [1] turned out to be 73.9%. `NC(=O)NC1NC(=O)NC1=O` (stereo not given): the inhibition in experiment [1] stood at 58.2%. As to `Oc1ccc2[nH]cc(C3=CCNCC3)c2n1`, the inhibition in experiment [1] came to 73.2%.

For the molecule `CNC(=O)Oc1ccc2c(c1)[C@]1(C)CCN(C)[C@@H]1N2`, in experiment [1], the inhibition was found to be 55.9%. Turning to `COC(=O)[C@@H]1OC(=O)C2OC23[C@]2(C)[C@H](O)CC4C(C)(C)[C@H](OC(C)=O)C[C@H](OC(C)=O)[C@]4(C)[C@H]2CC[C@@]13C` (stereo not given in full), the inhibition in experiment [1] was 81.8%. The same measure, in the same setting: the value for `CN1CCN(CCCN2c3ccccc3SC3C=CC(Cl)=CC32)CC1` (stereo not given) was 61.6%.

Regarding `COc1cc(OC)c2c(c1Cl)OC1(C2=O)C(O)=CC(=O)CC1C` (stereo not given), the inhibition in experiment [1] amounted to 77.8%. `Cc1[nH]c2ccc(O)cc2c1CCN`: the inhibition in experiment [1] was 59%. Take `CN1CC[C@@]2(C)c3cc(OC(=O)Nc4ccccc4)ccc3N(C)[C@@H]12`: the inhibition in experiment [1] was 56.6%. `CC(=O)N[C@H]1CN2CC[C@H](O)[C@@H]2[C@@H](O)[C@@H]1O`: in experiment [1], the inhibition was found to be 63.8%.

For `Cc1onc(-c2c(Cl)cccc2Cl)c1NC(=O)Nc1ccc(N(C)C)c(Cl)c1C#N`, the inhibition in experiment [1] was 97.1%. Turning to `Cc1cccc(C)c1NC(=O)[C@@H]1CCCCN1C`, in experiment [1], the inhibition was determined as 60.1%.

Regarding `CC(=O)[C@H]1CC[C@H]2[C@@H]3CCC4C[C@H](O)CC[C@]4(C)[C@H]3C[C@H](O)[C@]12C` (stereo not given in full), the inhibition in experiment [1] came out at 71.6%.

On to `Nc1cc(-c2ccncc2)c[nH]c1=O`, for which, in experiment [1], the inhibition worked out at 92.3%.

`CNCC[C@H](Oc1cccc2ccccc12)c1cccs1` [DULOXETINE]: the inhibition in experiment [1] came to 83.8%. Besides, the IC50 in experiment [2] is 6.92 µM. Take `CC(C)C[C@H](N(C)C)C1(c2ccc(Cl)cc2)CCC1`: in experiment [1], the inhibition stood at 62%. Turning to `CC(=O)C1CC[C@H]2C3CC[C@H]4C[C@H](O)CC[C@]4(C)C3CC[C@]12C` (stereo not given in full), the inhibition in experiment [1] turned out to be 65.9%.

Regarding `Cc1cccc(CCN2CCC(C(=O)c3ccc(NS(C)(=O)=O)cc3)CC2)n1`, the inhibition in experiment [1] was found to be 54.9%. Take `Nc1nc(=O)c2nc(CNc3ccc(C(=O)N[C@@H](CCC(=O)O)C(=O)O)cc3)cnc2[nH]1`: the inhibition in experiment [1] was found to be 53.6%. Turning to `CS(=O)(=O)c1ccc2ccn(O)c2c1`, the inhibition in experiment [1] was determined as 60.3%. As for `COc1cc(NC(C)CCCN)c2ncccc2c1` (stereo not given) [PRIMAQUINE], the inhibition in experiment [1] came to 91.9%. In experiment [2], the IC50 is 0.437 µM. The matching figures for `CN(C)c1cc2c(Nc3ccc4c(cnn4Cc4ccccc4)c3)ncnc2cn1` [GW282974X]: 77.5% and 2.45 µM.

Regarding `COC(=O)CC1C(C)(C)C(OC(C)=O)[C@@H]2[C@@H](OC(C)=O)[C@]34O[C@@H]2[C@]1(C)C3CC[C@]1(C)C4=CC(=O)O[C@H]1c1ccoc1` (stereo not given in full), the inhibition in experiment [1] turned out to be 52.4%. Consider `Cc1cc(/C=C/c2ccc3cc(N(C)C)ccc3[n+]2C)c(C)n1-c1ccccc1`, for which the inhibition in experiment [1] is 88.2%. Also, in experiment [2], the IC50 was 2.57 µM. Consider `CCNc1cc(N)[n+](CC)c2[nH]nc(/N=C/c3cc(Cl)cc(Cl)c3O)c12`, for which, in experiment [1], the inhibition turned out to be 97%. Turning to `Cc1nc2c(OCc3ccccc3)cccn2c1CC#N`, the inhibition in experiment [1] was determined as 77.9%. Regarding `COc1ccc(OC)c(NC(=S)N2CCN(c3ncc(C(F)(F)F)cc3Cl)CC2)c1`, the inhibition in experiment [1] stood at 60.2%.

As to `COC(=O)[C@@H]1[C@H]2C[C@H]3c4[nH]c5ccccc5c4CCN3C[C@@H]2CC[C@@H]1O`, the inhibition in experiment [1] worked out at 57.4%.

As for `c1ccc2c(N3CCNCC3)cccc2c1`, the inhibition in experiment [1] was found to be 86.1%. Regarding `CCOC(=O)[C@H](CCc1ccccc1)N[C@H](C)C(=O)N1C2CCCCC2C[C@H]1CO` (stereo not given in full), the inhibition in experiment [1] was 53%.

Take `Brc1c(NC2=NCCN2)ccc2nccnc12`: in experiment [1], the inhibition was found to be 79%.

Regarding `CCC(N)C(O)c1ccc(O)c(O)c1` (stereo not given), the inhibition in experiment [1] amounted to 87%. As to `Fc1ccc(COc2ccc(-c3nnco3)cc2)cc1`, the inhibition in experiment [1] was 53.7%.

Regarding `COC(=O)/C=C(/Nc1cc(OC)ccc1OC)C(=O)OC`, the inhibition in experiment [1] was found to be 56.3%. The same measure, in the same setting: the result for `CN(C)N1C(=O)c2cccc3c(Br)ccc(c23)C1=O` reads 69.8%. On the same count and under the same terms, the value for `COc1cc2c(CCNC(C)=O)c[nH]c2cc1O` was 92.7%; that for `CC(C)(C)C(=O)C(C#N)CNc1cccc2nsnc12` (stereo not given) was 69.6%. As to `CCOC(=O)Nc1ccc(NCc2ccc(F)cc2)nc1N` [FLUPIRTINE], the inhibition in experiment [1] stood at 86.1%. Moreover, the IC50 in experiment [2] was 0.933 µM. For `COc1ccc(Cc2nccc3cc(OC)c(OC)cc23)cc1OC` [PAPAVERINE], the inhibition in experiment [1] is 59.2%. Further, the IC50 in experiment [2] is 2.69 µM. Take `N#Cc1ccc(S(=O)(=O)Cc2cccc3ccccc23)cc1`: the inhibition in experiment [1] came out at 54.5%. `C=C(C)[C@H]1CC=C(C(=O)O)CC1`: in experiment [1], the inhibition came to 70%. Consider `COc1ccc2c(c1O)-c1c(OC)c(OC)cc3c1C(C2)N(C)CC3` (stereo not given), for which the inhibition in experiment [1] was 69.3%. Regarding `COc1ccc2cc1Oc1ccc(cc1)C[C@H]1c3c(cc4c(c3Oc3cc5c(cc3OC)CCN(C)[C@@H]5C2)OCO4)CCN1C`, the inhibition in experiment [1] stood at 70.4%. As to `COC(=O)[C@@H](c1ccc2sccc2c1)c1ccccc1Cl`, the inhibition in experiment [1] was 53.3%. In general, pIC50 refers to the negative decadic logarithm of the IC50, by convention in mol/L. As for `COc1cc(NC(=O)C2CCC2)cc2sc(NS(=O)(=O)c3ccccc3)nc12`, the negative-log IC50 (pIC50) in experiment [2] was 5.09.

For the molecule `COc1ccc2nc(NC(=O)Nc3cn(CC(C)C)c(=O)c4ccccc34)sc2c1`, the negative-log IC50 (pIC50) in experiment [2] is 5.69. In the case of `COc1ccc(OC)c(NC(=O)N2CCN(S(=O)(=O)c3ccc4c(ccn4C)c3)CC2)c1`, in experiment [2], the pIC50 is 5.49.

In the case of `CC(C)Cn1cc(NC(=O)N(Cc2ccco2)C2CCCCC2C)c2ccccc2c1=O` (stereo not given), the pIC50 in experiment [2] is 5.20.

Consider `CC(C)CC(=O)Nc1cc(F)c2nc(N3CCOCC3)ccc2c1`, for which the negative-log IC50 (pIC50) in experiment [2] is 5.59. On to `CCc1nnc2c3ccccc3nc(Nc3ccc(OC)c(OC)c3)n12`, for which the pIC50 in experiment [2] is 4.91.

Turning to `O=C(Nc1cccc2c(=O)cc(-c3nnn[nH]3)oc12)c1ccc(OCCCCc2ccccc2)cc1`, in experiment [1], the inhibition was determined as 65.5%. In the case of `CC(C(=O)Nc1cccc(/N=C/c2c(O)ccc3ccccc23)c1)c1ccccc1` (stereo not given), the inhibition in experiment [1] amounted to 60.1%.

For `CC(C)CCNC(=O)CSc1nc2ncccc2o1`, the pIC50 in experiment [2] is 5.60.

For the molecule `O=C(Nc1ccc2c(c1)OCCO2)N1Cc2ccccc2Oc2ncccc21`, in experiment [2], the negative logarithm of the IC50 (pIC50) is 5.51. `Cc1c(C(=O)N2CCOCC2)oc2c1-c1nn(CC(=O)NC3CCCCC3C)cc1CC2` (stereo not given): the pIC50 in experiment [2] is 5.50. With `COc1ccc(Nc2nc(NC3CCCC3)nc3c2cnn3C)cc1`, the pIC50 in experiment [2] was 5.57. Turning to `COCCCNc1nc(Nc2ccc(OC)cc2)c2cnn(C)c2n1`, the pIC50 in experiment [2] was 5.63. Same read-out and setting: the result for `CC(C)Cn1cc(NC(=O)NC(c2cccs2)C(C)C)c2ccccc2c1=O` (stereo not given) reads 5.39; that for `CC(C)Cn1cc(NC(=O)NC2CCCC2)c2ccccc2c1=O`, 5.65.
